In ChEMBL document CHEMBL1201862, “PubChem BioAssay data set” (2004):
The source made the active and inactive calls.

Columns and labels:
[1] = molecular target: T1, Disintegrin and metalloproteinase domain-containing protein 17 (Homo sapiens, UniProt P78536); experiment: exosite inhibitors of ADAM17, dose response, biochemical (AID 743260)
[2] = ADAM10 protease inhibitors, dose response, selectivity assay for ADAM17 exosite inhibitor project, biochemical, FRET peptide substrate, recombinant human ADAM10 (AID 743259);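 also: ADAM10 enzyme cleaving a FRET peptide substrate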
[3] = cells; format: functional, cell-based
[4] = molecular target: T2, Nuclear receptor subfamily 0 group B member 1 (Homo sapiens, UniProt P51843); format: functional, cell-based;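 also: HEK293T cells transfected with SF-1 and DAX-1 plus StAR promoter luciferase reporter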
T2 sequence (P51843 whole entry): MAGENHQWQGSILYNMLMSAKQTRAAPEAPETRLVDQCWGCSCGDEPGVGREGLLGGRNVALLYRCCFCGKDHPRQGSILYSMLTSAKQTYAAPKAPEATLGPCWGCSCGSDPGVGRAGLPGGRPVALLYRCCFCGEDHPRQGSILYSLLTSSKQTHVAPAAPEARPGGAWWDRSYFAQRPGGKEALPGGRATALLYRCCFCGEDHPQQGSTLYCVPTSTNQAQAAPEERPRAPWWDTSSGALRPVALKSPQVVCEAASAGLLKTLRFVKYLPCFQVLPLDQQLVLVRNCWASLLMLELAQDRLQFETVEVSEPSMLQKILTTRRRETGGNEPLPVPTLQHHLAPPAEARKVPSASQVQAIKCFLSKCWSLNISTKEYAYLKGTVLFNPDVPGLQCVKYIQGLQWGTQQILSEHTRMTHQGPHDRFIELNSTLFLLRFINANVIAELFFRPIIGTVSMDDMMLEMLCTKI

[5] = ADAM10 inhibitors, peptide cleavage, dose response, biochemical, QFRET (AID 743254);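 also: ADAM10 enzyme with the DM2 quenched FRET peptide as substrate; EDANS fluorescence gain as the protease cuts the substrate; inhibitor potency against ADAM10 proteolytic activity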
[6] = molecular target: T1, Disintegrin and metalloproteinase domain-containing protein 17; experiment: ADAM17 protease inhibitors, dose response, counter-screen for ADAM10 exosite inhibitor project, biochemical, quenched FRET substrate (AID 743253)
[7] = Luminescence Cell-Based Dose Response HTS to Identify Activators of Luciferase Translation or Activity in H4 […] Cells. [Related pubchem assays: 1829 (Project Summary), 1814 (Primary HTS)]; format: functional
[8] = molecular target: T3, Replicative DNA helicase DnaB (Mycobacterium tuberculosis, UniProt P9WMR3); experiment: DnaB intein splicing inhibitors, dose response, biochemical, cell-free fluorescence (AID 449749); format: functional
T3 sequence (P9WMR3 whole entry): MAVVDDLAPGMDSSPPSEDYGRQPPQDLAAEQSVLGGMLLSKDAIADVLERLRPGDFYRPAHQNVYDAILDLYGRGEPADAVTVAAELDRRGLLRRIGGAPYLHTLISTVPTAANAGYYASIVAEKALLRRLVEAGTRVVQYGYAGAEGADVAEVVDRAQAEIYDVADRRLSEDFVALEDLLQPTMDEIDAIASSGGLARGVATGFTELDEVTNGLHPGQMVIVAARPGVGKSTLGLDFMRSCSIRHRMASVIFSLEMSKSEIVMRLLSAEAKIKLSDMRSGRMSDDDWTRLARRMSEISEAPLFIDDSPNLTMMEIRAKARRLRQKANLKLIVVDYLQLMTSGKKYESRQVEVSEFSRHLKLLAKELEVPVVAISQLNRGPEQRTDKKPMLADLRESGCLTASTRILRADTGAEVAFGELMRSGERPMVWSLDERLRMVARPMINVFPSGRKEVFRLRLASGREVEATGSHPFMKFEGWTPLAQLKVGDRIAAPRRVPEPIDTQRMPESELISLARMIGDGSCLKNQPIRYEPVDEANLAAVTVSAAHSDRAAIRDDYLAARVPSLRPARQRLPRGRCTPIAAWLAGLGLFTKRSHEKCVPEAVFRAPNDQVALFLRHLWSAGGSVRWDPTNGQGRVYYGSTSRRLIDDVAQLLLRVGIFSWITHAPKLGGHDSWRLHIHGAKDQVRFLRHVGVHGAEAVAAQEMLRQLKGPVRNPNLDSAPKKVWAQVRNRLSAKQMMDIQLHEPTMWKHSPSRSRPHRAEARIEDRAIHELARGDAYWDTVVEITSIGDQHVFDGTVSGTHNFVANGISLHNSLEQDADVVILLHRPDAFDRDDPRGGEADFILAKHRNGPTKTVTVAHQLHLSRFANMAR

[9] = non-specific cell cytotoxicity, dose response, cytotoxicity control for PAX8 inhibitor project, plate reader, dry powder samples (AID 743021); format: functional, cell-based
[10] = molecular target: T4, Protein RecA (Mycobacterium tuberculosis, UniProt P9WHJ3); experiment: Fluorescence Cell-Free Homogeneous Dose Retest to Identify Inhibitors of RecA-Intein Splicing Activity. [Related pubchem assays (depositor defined):AID2097, AID2223, AID489010, AID492950]; format: functional
T4 sequence (P9WHJ3 whole entry): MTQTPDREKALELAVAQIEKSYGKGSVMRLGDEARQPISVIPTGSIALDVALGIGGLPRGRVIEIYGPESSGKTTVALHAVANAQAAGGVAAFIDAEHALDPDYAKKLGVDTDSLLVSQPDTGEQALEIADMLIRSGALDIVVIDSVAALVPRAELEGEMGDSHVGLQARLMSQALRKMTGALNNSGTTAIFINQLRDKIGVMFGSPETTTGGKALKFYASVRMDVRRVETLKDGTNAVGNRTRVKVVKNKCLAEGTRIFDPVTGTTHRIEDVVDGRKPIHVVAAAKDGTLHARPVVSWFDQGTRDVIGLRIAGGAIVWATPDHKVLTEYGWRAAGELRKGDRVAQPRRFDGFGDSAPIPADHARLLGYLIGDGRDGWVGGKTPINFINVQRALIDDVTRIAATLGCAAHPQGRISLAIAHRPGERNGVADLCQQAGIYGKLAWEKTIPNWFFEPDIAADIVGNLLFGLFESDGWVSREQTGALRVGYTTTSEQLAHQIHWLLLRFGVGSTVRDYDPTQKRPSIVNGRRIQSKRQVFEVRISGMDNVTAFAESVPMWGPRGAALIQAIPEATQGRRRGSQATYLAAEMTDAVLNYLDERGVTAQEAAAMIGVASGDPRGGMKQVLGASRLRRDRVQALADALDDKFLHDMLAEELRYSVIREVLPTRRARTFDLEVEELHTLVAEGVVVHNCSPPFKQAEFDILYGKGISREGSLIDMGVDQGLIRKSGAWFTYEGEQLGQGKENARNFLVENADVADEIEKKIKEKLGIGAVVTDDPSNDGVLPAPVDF

[11] = molecular target: Paired box protein Pax-8 (Homo sapiens, UniProt Q06710); experiment: inhibitors of PAX8-driven TPO luciferase reporter, dose response, RMG-I cells, cherry-pick (AID 687027); format: functional, cell-based;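 also: luciferase reporter driven by Pax8 target thyroperoxidase promoter measured by SteadyGlo luminescence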
[12] = test system: H4; experiment: Luminescence Cell-Based Dose Response HTS to Identify Activators of 5'UTR Stem-Loop Driven Prion Protein mRNA Translation in H4 Neuroglioblastoma Cells. [Related pubchem assays: 1829 (Project Summary), 1814 (Primary HTS)]; format: functional; settings: Homo sapiens
[13] = IGROV1 ovarian cancer cell cytotoxicity, dose response, PAX8 inhibitor project, plate reader, dry powder samples (AID 743043); format: functional, cell-based; settings: IGROV-1
[14] = cytotoxicity in OVCAR8 ovarian cancer cells, dose response, PAX8 project, cell-based, plate reader, dry powder samples (AID 743197); format: functional; settings: OVCAR-8
[15] = NIH:OVCAR-3 ovarian cancer cell cytotoxicity, dose response, PAX8 inhibitor project, plate reader, dry powder samples (AID 743044); format: functional, cell-based
[16] = HEK293T cytotoxicity, dose response, cytotoxicity control for miR-122 modulator project, cell-based, inhibitor set, cherry-pick, set 2 (AID 720697); format: functional
[17] = Counterscreen for inhibitors of Trypanosoma brucei methionyl tRNA synthetase (MetRS): Luminescence-based cell-based high throughput dose response assay to identify compounds that are cytotoxic to Jurkat human T lymphocyte cells.; format: functional
[18] = molecular target: T5, Methionyl-tRNA synthetase, putative (Trypanosoma brucei brucei, UniProt Q38C91); format: functional, Trypanosoma brucei brucei strain 927/4 GUTat10.1
T5 sequence (Q38C91 whole entry): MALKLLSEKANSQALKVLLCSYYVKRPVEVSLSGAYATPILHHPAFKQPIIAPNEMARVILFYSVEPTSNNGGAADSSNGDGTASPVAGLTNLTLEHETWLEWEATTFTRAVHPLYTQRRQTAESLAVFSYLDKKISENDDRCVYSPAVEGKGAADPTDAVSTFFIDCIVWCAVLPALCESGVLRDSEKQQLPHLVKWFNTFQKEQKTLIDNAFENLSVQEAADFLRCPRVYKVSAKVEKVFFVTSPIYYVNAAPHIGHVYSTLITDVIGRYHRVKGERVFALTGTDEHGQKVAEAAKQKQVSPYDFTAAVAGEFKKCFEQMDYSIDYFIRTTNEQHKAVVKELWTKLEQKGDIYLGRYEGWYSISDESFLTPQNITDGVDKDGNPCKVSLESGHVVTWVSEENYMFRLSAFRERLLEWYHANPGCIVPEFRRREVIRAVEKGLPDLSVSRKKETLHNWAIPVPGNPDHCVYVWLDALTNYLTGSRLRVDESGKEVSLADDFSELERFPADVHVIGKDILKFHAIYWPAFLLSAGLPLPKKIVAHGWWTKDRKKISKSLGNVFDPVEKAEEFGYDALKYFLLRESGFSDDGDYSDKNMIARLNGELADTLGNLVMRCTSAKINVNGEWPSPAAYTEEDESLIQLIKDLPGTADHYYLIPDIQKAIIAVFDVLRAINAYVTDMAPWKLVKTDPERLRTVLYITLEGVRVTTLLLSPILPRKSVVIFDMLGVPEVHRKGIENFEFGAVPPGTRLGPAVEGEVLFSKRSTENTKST

[19] = molecular target: T5, Methionyl-tRNA synthetase, putative; format: functional, Trypanosoma brucei brucei strain 927/4 GUTat10.1; remark: listed apart in the source
[20] = molecular target: T6, Long-chain-fatty-acid--AMP ligase FadD28 (Mycobacterium tuberculosis, UniProt P9WQ59); experiment: Fluorescence polarization aasay to screen for inhibitors that compete for the binding of FadD28 to a bisubstrate Measured in Biochemical System Using Plate Reader - 2147-01_Inhibitor_Dose_CherryPick_Activity.; format: functional, Mycobacterium tuberculosis H37Rv
T6 sequence (P9WQ59 whole entry): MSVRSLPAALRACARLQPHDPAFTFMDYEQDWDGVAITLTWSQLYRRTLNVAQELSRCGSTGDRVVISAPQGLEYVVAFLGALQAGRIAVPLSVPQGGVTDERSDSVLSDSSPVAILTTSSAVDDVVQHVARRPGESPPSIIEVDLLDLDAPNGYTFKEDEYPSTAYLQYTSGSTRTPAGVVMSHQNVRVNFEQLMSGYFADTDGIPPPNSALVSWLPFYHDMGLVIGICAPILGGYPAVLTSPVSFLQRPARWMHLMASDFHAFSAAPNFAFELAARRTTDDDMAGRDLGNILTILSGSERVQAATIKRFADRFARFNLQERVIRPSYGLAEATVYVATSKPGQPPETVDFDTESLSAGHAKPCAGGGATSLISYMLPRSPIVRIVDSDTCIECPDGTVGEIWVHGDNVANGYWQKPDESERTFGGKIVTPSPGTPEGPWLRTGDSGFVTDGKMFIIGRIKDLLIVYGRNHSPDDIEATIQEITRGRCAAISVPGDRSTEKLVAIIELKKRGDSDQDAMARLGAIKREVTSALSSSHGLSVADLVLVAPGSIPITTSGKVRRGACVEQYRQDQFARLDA

T1 sequence (P78536 whole entry, the tested form may be a part): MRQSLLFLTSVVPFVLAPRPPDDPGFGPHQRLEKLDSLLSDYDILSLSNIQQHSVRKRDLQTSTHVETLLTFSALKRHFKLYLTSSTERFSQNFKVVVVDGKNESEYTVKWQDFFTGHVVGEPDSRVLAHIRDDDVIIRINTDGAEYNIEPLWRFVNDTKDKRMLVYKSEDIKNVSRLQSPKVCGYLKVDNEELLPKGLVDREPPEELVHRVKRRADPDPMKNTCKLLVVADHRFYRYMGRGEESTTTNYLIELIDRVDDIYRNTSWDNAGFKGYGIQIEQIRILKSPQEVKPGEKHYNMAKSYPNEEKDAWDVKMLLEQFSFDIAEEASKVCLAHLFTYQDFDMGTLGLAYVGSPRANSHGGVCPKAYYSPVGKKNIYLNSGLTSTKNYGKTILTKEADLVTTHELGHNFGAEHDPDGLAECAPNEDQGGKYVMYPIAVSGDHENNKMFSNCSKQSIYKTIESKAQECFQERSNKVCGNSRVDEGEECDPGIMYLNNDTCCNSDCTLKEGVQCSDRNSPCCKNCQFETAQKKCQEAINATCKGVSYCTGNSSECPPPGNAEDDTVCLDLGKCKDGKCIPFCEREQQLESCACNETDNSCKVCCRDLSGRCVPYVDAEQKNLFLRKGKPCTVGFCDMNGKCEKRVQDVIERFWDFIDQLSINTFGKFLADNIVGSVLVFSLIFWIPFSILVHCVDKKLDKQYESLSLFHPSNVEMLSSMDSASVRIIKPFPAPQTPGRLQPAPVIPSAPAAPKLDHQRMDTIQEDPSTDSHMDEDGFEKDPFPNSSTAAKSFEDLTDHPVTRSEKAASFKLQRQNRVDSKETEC
Sequence of Paired box protein Pax-8 (Q06710 whole entry): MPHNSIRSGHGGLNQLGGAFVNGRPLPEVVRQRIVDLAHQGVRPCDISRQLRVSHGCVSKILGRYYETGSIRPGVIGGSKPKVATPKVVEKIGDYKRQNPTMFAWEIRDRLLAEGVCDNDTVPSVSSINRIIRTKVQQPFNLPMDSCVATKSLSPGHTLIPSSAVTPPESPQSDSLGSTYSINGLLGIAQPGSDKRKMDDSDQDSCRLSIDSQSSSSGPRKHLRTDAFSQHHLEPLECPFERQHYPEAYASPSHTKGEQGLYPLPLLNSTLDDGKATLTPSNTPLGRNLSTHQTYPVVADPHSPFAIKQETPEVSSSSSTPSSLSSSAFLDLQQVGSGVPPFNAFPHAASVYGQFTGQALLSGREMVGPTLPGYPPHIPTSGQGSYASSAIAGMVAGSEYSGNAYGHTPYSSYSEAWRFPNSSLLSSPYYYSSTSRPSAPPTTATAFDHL

Cc1ccc(OCc2nnc(SC/C=C/c3ccccc3)n2Cc2ccco2)cc1
IC50 [1]: > 69.6 µM (inactive)
IC50 [2]: 16 µM (inactive)

Cc1cc(Cl)c2oc(C(=O)N(C)C3CCOC3)c(C)c2c1 (stereo unspecified)
IC50 [3]: > 67.5 µM (inactive)
IC50 [4]: > 67.5 µM (inactive)

COc1ccccc1/C=C/C1C(C(=O)OCC(C)C)=C(C)N=C2SCCC(=O)N21 (stereo unspecified)
IC50 [1]: > 69.5 µM (inactive)
IC50 [2]: > 69.5 µM (inactive)

COC(=O)C1=C(c2ccccc2OCc2ccccc2)C[C@@H]2CC[C@H]1N2C(=O)NCc1ccc(C(C)(C)C)cc1
IC50 [5]: > 69.5 µM (inactive)
IC50 [6]: > 69.5 µM (inactive)

COC(=O)c1sccc1NC(=O)Nc1ccc(C)cc1
IC50 [3]: > 67.6 µM (inactive)
IC50 [4]: > 67.6 µM (inactive)

FC(F)(F)c1cc(CCN2C(=S)NC[C@@H]2Cc2ccccc2)cc(C(F)(F)F)c1
IC50 [6]: > 69.5 µM (inactive)

Cc1ccc(-n2nc(C)c(NC(=O)CCl)c2C)cc1C
EC50 [7]: 115 µM (active)
AC50 [8]: > 380 µM (inactive)
AC50 [9]: 39.5 µM (active)
EC50 [10]: 16 µM (active)
AC50 [11]: 6.77 µM (active)
EC50 [12]: > 120 µM (not active)

O=C(Nc1ccc(F)cc1)N1C[C@@H]2N[C@H](C1)[C@@H]2c1ccc(-c2ccccc2F)cc1
AC50 [13]: 42.5 µM (active)
AC50 [14]: > 70 µM (inactive)
AC50 [9]: 55.6 µM (active)
AC50 [15]: 32 µM (active)
AC50 [11]: 13.8 µM (active)

Clc1ccc(OCc2cc(-c3ccccc3)no2)c(Cl)c1
IC50 [3]: > 67.5 µM (inactive)
IC50 [4]: > 67.5 µM (inactive)

Cc1ccc(-n2c(S)nnc2Cc2ccccc2)cc1
AC50 [16]: 3.74 µM (active)

O=C(CSc1ccc(-c2nc3ccccc3[nH]2)cn1)Nc1ccc(S(=O)(=O)NC2CC2)cc1
IC50 [17]: 83.3 µM (inactive)
IC50 [18]: 4.53 µM (active)
IC50 [19]: 3.58 µM (active)

O=C1NC(=O)C(Cc2ccc(Cl)cc2)(c2ccccc2)N1 (stereo unspecified)
IC50 [1]: 3.67 µM (active)
IC50 [2]: 29.4 µM (inactive)

O=C(NN1C(=O)/C(=C/c2ccc(O)cc2)SC1=S)c1cccc(O)c1
IC50 [17]: 83.3 µM (inactive)
AC50 [20]: 62 µM (active)
IC50 [18]: 30.9 µM (inactive)
IC50 [19]: 44.6 µM (inactive)

FC(F)(F)c1cc(CCN2C(S)=NC[C@@H]2Cc2ccccc2)cc(C(F)(F)F)c1
IC50 [5]: 11.8 µM (inactive)

COCC(=O)NC[C@@H]1[C@H](c2ccc(C3=CCCC3)cc2)[C@H](CO)N1C(=O)C1CC1
AC50 [16]: 0.499 µM (active)
